Test results: patent US20250268903A1, “RXFP1 AGONISTS” (BRISTOL-MYERS SQUIBB COMPANY, priority 2021, published 2025)

Molecular target: T1, human RXFP1 (Homo sapiens, UniProt Q9HBX9)
T1 construct: expressed in transfected cells
T1 sequence (Q9HBX9 1-757): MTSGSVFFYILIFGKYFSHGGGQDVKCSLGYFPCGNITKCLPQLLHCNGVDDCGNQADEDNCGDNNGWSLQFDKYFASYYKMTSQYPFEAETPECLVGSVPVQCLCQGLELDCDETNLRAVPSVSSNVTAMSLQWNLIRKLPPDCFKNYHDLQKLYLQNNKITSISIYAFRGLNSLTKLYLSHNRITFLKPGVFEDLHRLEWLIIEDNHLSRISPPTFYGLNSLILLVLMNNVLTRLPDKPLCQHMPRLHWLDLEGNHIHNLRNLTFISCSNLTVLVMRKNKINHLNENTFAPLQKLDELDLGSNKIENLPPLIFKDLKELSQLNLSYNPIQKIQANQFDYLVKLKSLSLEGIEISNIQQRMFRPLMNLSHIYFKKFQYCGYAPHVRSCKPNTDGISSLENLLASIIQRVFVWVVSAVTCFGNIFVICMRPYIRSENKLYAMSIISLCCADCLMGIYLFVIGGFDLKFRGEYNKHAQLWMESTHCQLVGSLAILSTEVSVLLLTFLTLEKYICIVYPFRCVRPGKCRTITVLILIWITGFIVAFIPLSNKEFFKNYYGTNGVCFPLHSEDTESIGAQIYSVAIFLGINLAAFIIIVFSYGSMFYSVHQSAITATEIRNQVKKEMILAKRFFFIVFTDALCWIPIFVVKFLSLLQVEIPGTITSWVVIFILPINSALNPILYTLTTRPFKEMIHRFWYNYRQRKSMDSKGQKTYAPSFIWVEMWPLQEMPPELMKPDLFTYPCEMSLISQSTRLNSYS
Experiment: hRXFP1 HEK293 cAMP assay (HTRF)
Assay type: cell-based
Settings: HEK293 cells stably expressing human RXFP1, 30 min at room temperature
How it was run: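 In a stable human RXFP1 HEK293 line, compounds acted for 30 min at RT in buffer with 0.5 mM IBMX. HTRF then quantified cellular cAMP.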

| SMILES | EC50 [nM] |
| --- | --- |
| COc1ccc(/C=C/C(=O)N[C@H]2C[C@@H](O)C2)cc1C(=O)N[C@@H]1C2CCC(/C2=C/C2CC2)[C@@H]1C(=O)Nc1ccc(F)c(C(F)(F)F)c1 (stereo partly drawn) [Example 128, (2S,3R,7Z)-7-(cyclopropylmethyli-dene)-N-[4-fluoro-3-(trifluoromethyl)phe-nyl]-3-{2-methoxy-5-[(1E)-2-{[(1s,3s)-3-hydroxycyclobutyl]carbamoyl}eth-1-en-1-yl]benzamido}bicyclo [2.2.1]heptane-2-carboxamide] | 96 |
| COc1ccc(C2CC2C(=O)O)cc1C(=O)N[C@@H]1C2CCC(/C2=C/C(F)(F)F)[C@@H]1C(=O)Nc1ccc(F)c(C(F)(F)F)c1 (single isomer, unassigned) [Example 62] | 172 |
| COc1ccc(S(=O)(=O)N2CCN(C(=O)OC(C)(C)C)CC2CCO)cc1C(=O)N[C@H]1[C@@H](C(=O)Nc2ccc(F)c(C(F)(F)F)c2)[C@H]2CC[C@@H]1/C2=C\C(F)(F)F (stereo partly drawn) [Example 215, tert-butyl 4-(3-{[(1R,2R,3S,4R,7Z)-3-{[4-fluoro-3-(trifluoromethyl)phenyl]carbamoyl}-7-(2.2,2-trifluoroethylidene)bicyclo[2.2.1]heptan-2-yl]carbamoyl}-4-methoxy-benzenesulfonyl)-3-(2-hydroxyethyl) piperazine-1-carboxylate] | 761 |
| COc1ccc(CCCCCCO)cc1C(=O)N[C@@H]1C2CCC(/C2=C/C(F)(F)F)[C@@H]1C(=O)Nc1ccc(F)c(C(F)(F)F)c1 (stereo partly drawn) [Example 99, (2S,3R,7Z)-N-[4-fluoro-3-(trifluoromethyl)phe-nyl]-3-[5-(6-hydroxyhexyl)-2-methoxybenzamido]-7-(2,2,2-trifluoroethylidene)bi-cyclo[2.2.1]heptane-2-carboxamide] | 268 |
| COc1ccc(COC2CC2)cc1C(=O)N[C@@H]1C2CCC(/C2=C/C2CC2)[C@@H]1C(=O)Nc1ccc(F)c(C(F)(F)F)c1 (stereo partly drawn) [Example 19, (2S,3R,7Z)-3-[5-(cyclopropoxymethyl)-2-methoxybenzamido]-7-(cyclopropylmethyli-dene)-N-[4-fluoro-3-(trifluoromethyl)phe-nyl]bicyclo[2.2.1]hept-ane-2-carboxamide] | 125 |
| COc1ccc(C2CCC2)cc1C(=O)N[C@H]1[C@@H](C(=O)Nc2ccc(F)c(C(F)(F)F)c2)[C@H]2CC[C@@H]1/C2=C\C(F)(F)F [Example 176, (1R,2S,3R,4R,Z)-3-(5-cyclobutyl-2-methoxybenzamido)-N-(4-fluoro-3-(trifluoromethyl)phenyl)-7-(2,2,2-trifluoroethylidene) bicyclo[2.2.1]heptane-2-carboxamide] | 738 |
| COc1ccc(S(=O)(=O)N2CCOC[C@H]2CO)cc1C(=O)N[C@H]1[C@@H](C(=O)Nc2ccc(F)c(C(F)(F)F)c2)[C@H]2CC[C@@H]1/C2=C\C1CC1 [Example 224, (1R,2S,3R,4R,7Z)-7-(cyclopropylmethyl-idene)-N-[4-fluoro-3-(trifluoromethyl)phenyl]-3-(5-{[(3R)-3-(hydroxymethyl)morpholin-4-yl]sulfonyl}-2-methoxybenzamido) bicyclo[2.2.1] heptane-2-carboxamide] | 80.3 |
| COc1ccc(C2CC3(CC(NC(=O)OC(C)(C)C)C3)C2)cc1C(=O)NC1C2CCC(/C2=C/C(F)(F)F)[C@@H]1C(=O)Nc1ccc(F)c(C(F)(F)F)c1 (stereo partly drawn) [Example 153, tert-butyl N-[6-(3-{[(2R,3S,7Z)-3-{[4-fluoro-3-(trifluoromethyl)phe-nyl]carbamoyl}-7-(2,2,2-trifluoroethylidene)bi-cyclo[2.2.1]heptan-2-yl]carbamoyl}-4-methoxyphenyl)spiro [3.3]heptan-2-yl]carbamate] | 1620 |
| COc1ccc(S(=O)(=O)N2CCS(=O)(=O)CC2)cc1C(=O)N[C@H]1[C@@H](C(=O)Nc2ccc(F)c(C(F)(F)F)c2)[C@H]2CC[C@@H]1/C2=C\C1CC1 [Example 222, (1R,2S,3R,4R,7Z)-7-(cyclopropylmethylidene)-3-{5-[(1,1-dioxo-1λ^6-thiomorpholin-4-yl)sulfonyl]-2-methoxybenzamido}-N-[4-fluoro-3-(trifluoromethyl)phenyl]bicyclo[2.2.1] heptane-2-carboxamide] | 84.9 |
| COc1ccc(CCC(C)(C)O)cc1C(=O)NC1C2CCC(/C2=C/C2CCOC2)[C@@H]1C(=O)Nc1ccc(F)c(C(F)(F)F)c1 (stereo partly drawn) [Example 169, (7Z)-N-[4-fluoro-3-(trifluoromethyl)phe-nyl]-3-[5-(3-hydroxy-3-methylbutyl)-2-methoxybenzamido]-7-[(oxolan-3-yl)methylidene]bicy-clo[2.2.1]heptane-2-carboxamide] | 102 |
| COc1ccc(CCCO)cc1C(=O)N[C@H]1[C@@H](C(=O)Nc2ccc(F)c(C(F)(F)F)c2)[C@H]2CC[C@@H]1/C2=C\C(C)C [Example 157, (1R,2S,3R,4R,Z)—N-(4-fluoro-3-(trifluoromethyl)phenyl)-3-(5-(3-hydroxypropyl)-2-methoxybenzamido)-7-(2-methylpropylidene) bicyclo[2.2.1]heptane-2-carboxamide] | 54 |

More lines, now with the values ahead:

| EC50 [nM] | SMILES |
| --- | --- |
| 116 | COc1ccc(CN2O[C@H]3COC[C@H]3C2=O)cc1C(=O)N[C@H]1[C@@H](C(=O)Nc2ccc(F)c(C(F)(F)F)c2)[C@H]2CC[C@@H]1/C2=C\C1CC1 [Example 299, (1R,2S,3R,4R,7Z)-3-(5-{[(3aR,6aR)-3-oxo-hexahydrofuro[3,4-d][1,2]oxazol-2-yl]methyl}-2-methoxybenzamido)-7-(cyclopropylmethylidene)-N-[4-fluoro-3-(trifluoromethyl)phenyl]bicyclo[2.2.1]heptane-2-carboxamide] |
| 90.8 | COc1ccc(C(=O)N2CCC(S(C)(=O)=O)C2)cc1C(=O)N[C@H]1[C@@H](C(=O)Nc2ccc(F)c(C(F)(F)F)c2)[C@H]2CC[C@@H]1/C2=C\C1CC1 (stereo partly drawn) [Example 257, (1R,2S,3R,4R,7Z)-7-(cyclopropylmethyl-idene)-N-[4-fluoro-3-(trifluoromethyl)phenyl]-3-[5-(3-methanesulfonyl-pyrrolidine-1-carbonyl)-2-methoxybenzamido] bicyclo[2.2.1]heptane-2-carboxamide] |
| 44 | COc1ccc(C(=O)N2CC(O)C2)cc1C(=O)N[C@H]1[C@@H](C(=O)Nc2ccc(F)c(C(F)(F)F)c2)[C@H]2CC[C@@H]1/C2=C\C1CC1 [Example 251, (1R,2S,3R,4R,7Z)-7-(cyclopropylmethyl-idene)-N-[4-fluoro-3-(trifluoromethyl)phenyl]-3-[5-(3-hydroxyazetidine-1-carbonyl)-2-methoxybenzamido] bicyclo[2.2.1]heptane-2-carboxamide] |
| 18.3 | COc1ccc(C[C@H]2C[C@H](O)C2)cc1C(=O)N[C@H]1[C@@H](C(=O)Nc2ccc(F)c(C(F)(F)F)c2)[C@H]2CC[C@@H]1/C2=C\C(F)(F)F [Example 279, (1R,2S,3R,4R,7Z)-N-[4-fluoro-3-(trifluoromethyl)phenyl]-3-(2-methoxy-5-{[(1r,3s)-3-hydroxycyclobutyl]methyl}benzamido)-7-(2,2,2-trifluoroethylidene) bicyclo[2.2.1]heptane-2-carboxamide] |
| 3440 | COc1cc2c(cc1C(=O)N[C@H]1[C@@H](C(=O)Nc3ccc(F)c(C(F)(F)F)c3)[C@H]3CC[C@@H]1/C3=C\C(F)(F)F)CCC2 [Example 273, [(1R,2R,3S,4R,7Z)-3-{[4-fluoro~3-(trifluoromethyl)phenyl]carbamoyl}-7-(2,2,2-trifluoroethylidene)bicyclo[2.2.1]heptan-2-yl]-6-methoxy-2,3-dihydro-IH-indene-5-carboxamide] |
| 16.3 | COc1ccc(/C=C/C(=O)N(C)CCO)cc1C(=O)N[C@H]1[C@@H](C(=O)Nc2ccc(F)c(C(F)(F)F)c2)[C@H]2CC[C@@H]1/C2=C\C1CC1 [Example 302, (1R,2S,3R,4R,7Z)-7-(cyclopropyl-methylidene)-N-[4-fluoro-3-(trifluoromethyl)phenyl]-3-{5-[(1E)-2-[(2-hydroxyethyl) (methyl)carbamoyl]eth-1-en-1-yl]-2-methoxybenzamido} bicyclo[2.2.1]heptane-2-carboxamide] |
| 6.9 | COc1c(F)cc(C(=O)NCC2(S(C)(=O)=O)CC2)cc1C(=O)N[C@H]1[C@@H](C(=O)Nc2ccc(F)c(C(F)(F)F)c2)[C@H]2CC[C@@H]1/C2=C\C1CC(F)(F)C1 [Example 374, N3-[(1R,2R,3S,4R,7Z)-7-[(3,3-difluorocyclobutyl)methylidene]-3-{[4-fluoro-3-(trifluoromethyl)phenyl]carbamoyl}bicyclo[2.2.1]heptan-2-yl]-5-fluoro-N1-[(1-methanesulfonyl-cyclopropyl)methyl]-4-methoxybenzene-1,3-dicarboxamide] |
